Measured values taken from the supplement of paper PMC4862054.

How the values were obtained:
Experiment in all cases: normalised response (% of control), CellTox Green; higher = less cell death (100 = DMSO, 0 = benzethonium chloride kill control)
Settings in all cases: incubation time: 72 h
[1] = system: BT-474
Summary of the method: (§1)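 After 72 h with compound in 384-well plates, breast cancer cell lines seeded as 20 µl suspension were read for CellTox Green fluorescence at 485/520 nm. CellTiter-Glo luminescence was then read after 10 min at room temperature. Compound was present at 5 concentrations in 10-fold steps over a 10,000-fold range set per compound, and plates were normalised to 0.1 % DMSO (100) and a positive kill control (0). Values are normalised signals, each at a single concentration.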

[2] = system: Hs578T
Summary of the method: as §1

[3] = system: HCC1143
Summary of the method: as §1

[4] = system: MDA-MB-468
Summary of the method: as §1

[5] = system: HDQ-P1
Summary of the method: as §1

[6] = system: CAL-148
Summary of the method: as §1

[7] = system: HCC1937
Summary of the method: as §1

[8] = system: MDA-MB-436
Summary of the method: as §1

[9] = system: DU-4475
Summary of the method: as §1

[10] = system: MDA-MB-453
Summary of the method: as §1

[11] = system: CAL-51
Summary of the method: as §1

[12] = system: MFM-223
Summary of the method: as §1

[13] = system: CAL-85-1
Summary of the method: as §1

[14] = system: MDA-MB-231
Summary of the method: as §1

[15] = system: CAL-120
Summary of the method: as §1

[16] = system: MCF-10A
Summary of the method: as §1

[17] = system: BT-549
Summary of the method: as §1

[18] = system: HCC1599
Summary of the method: as §1

| Compound | normalised response [1] | normalised response [2] | normalised response [3] | normalised response [4] | normalised response [5] | normalised response [6] | normalised response [7] | normalised response [8] | normalised response [9] | normalised response [10] | normalised response [11] | normalised response [12] | normalised response [13] | normalised response [14] | normalised response [15] | normalised response [16] | normalised response [17] | normalised response [18] |
| --- | --- | --- | --- | --- | --- | --- | --- | --- | --- | --- | --- | --- | --- | --- | --- | --- | --- | --- |
| O=NN(CCCl)C(=O)NCCCl [Carmustine] (1000 nM) | 97.3% | 106% | 105% | 86% | 99% | 98% | 112% | 99.5% | 96.9% | 103% | 115% | 66.4% | 102% | 105% | 95.8% | 92.1% | 96.9% | 94.9% |
| Cn1cnc2c(F)c(Nc3ccc(Br)cc3Cl)c(C(=O)NOCCO)cc21 [Selumetinib] (1000 nM) | 96.9% | 100% | 70.1% | 108% | 77.2% | 99.2% | 88.9% | 80.4% | 60.8% | 104% | 103% | 93.2% | 77.5% | 43.8% | 81.4% | 90.4% | 116% | 89.4% |
| Cn1cc(C2=Nc3cc(NC(=O)C(N)C4CCCCC4)cc4c3C2=CNNC4=O)cn1 (stereo not drawn) (1000 nM) | 92.3% | -123% | 4.8% | 126% | 97.4% | 86.4% | 113% | 85% | 95.2% | 91.8% | 56% | 87.6% | 45.8% | 54.1% | 80.1% | -64.4% | 95.4% | 73.3% |
| Oc1ncnc2[nH]ncc12 [Allopurinol] (10000 nM) | 104% | 70.8% | 117% | 79% | 108% | 98% | 76% | 99.7% | 98.6% | 75.7% | 116% | 94.1% | 83.4% | 108% | 101% | 102% | 89.5% | 102% |
| Nc1ncn([C@@H]2O[C@H](CO)[C@@H](O)[C@H]2O)c(=O)n1 [Azacitidine] (10000 nM) | 80% | 84.9% | 87.7% | 73.4% | 103% | 97.7% | 93.3% | 55.6% | 86.7% | 98.8% | 75.7% | 89.7% | 110% | 75.5% | 96.5% | 81.2% | 99.8% | 92% |
| Cn1cnc2c(F)c(Nc3ccc(Br)cc3Cl)c(C(=O)NOCCO)cc21 [Selumetinib] (10000 nM) | 99.4% | 89.5% | 97% | -53.9% | 75% | 96% | 98.3% | 101% | 62.3% | 101% | 101% | 100% | 108% | 21.6% | 87.3% | 74.4% | 99.7% | 108% |
| COc1cc2c(cc1O)CC[C@@H]1[C@@H]2CC[C@]2(C)[C@@H](O)CC[C@@H]12 [2-methoxyestradiol] (10000 nM) | 70.9% | -39.2% | 106% | 77.4% | 94.4% | 78.8% | 90% | 81.1% | 97.4% | 94.9% | 8.99% | 52.5% | 51.6% | -158% | 78.8% | 48.3% | 85.8% | 89% |
| O=NN(CCCl)C(=O)NCCCl [Carmustine] (10000 nM) | 98.8% | 100% | 54.2% | 138% | 91.3% | 98.7% | 86.4% | 88.9% | 95.3% | 99.4% | 100% | 94.8% | 114% | 96.9% | 98.7% | 104% | 84.3% | 102% |
| COc1cc2c(cc1O)CC[C@@H]1[C@@H]2CC[C@]2(C)[C@@H](O)CC[C@@H]12 [2-methoxyestradiol] (1000 nM) | 77.8% | 84.6% | 99.8% | 92.5% | 108% | 85.8% | 111% | 85.5% | 96.6% | 108% | 98.3% | 64.7% | 83.5% | 34.1% | 91.8% | 98.5% | 96.5% | 93.5% |
| CC(C)(C)c1cnc(CSc2cnc(NC(=O)C3CCNCC3)s2)o1 [SNS-032] (1000 nM) | 90% | 25% | 86.3% | 84% | 62.6% | 96.3% | 115% | 102% | 86.1% | 99.2% | 55.9% | 63.5% | 17.1% | -97.4% | 88.6% | 24% | 80.4% | 71.2% |
| Nc1ncn([C@@H]2O[C@H](CO)[C@@H](O)[C@H]2O)c(=O)n1 [Azacitidine] (1000 nM) | 80.4% |  |  | 33.9% | 59.9% | 84.3% |  | 97.7% | 97% | 110% | 105% | 89.6% | 98.4% | 93.2% | 101% | 101% | 108% | 96.4% |
| CC(=O)O[C@@]12CO[C@@H]1C[C@H](O)[C@@]1(C)C(=O)[C@H](O)C3=C(C)[C@@H](OC(=O)[C@H](O)[C@@H](NC(=O)OC(C)(C)C)c4ccccc4)C[C@@](O)([C@@H](OC(=O)c4ccccc4)[C@H]21)C3(C)C [Docetaxel] (1000 nM) | 58.4% | 22.6% | 55.4% | 134% | 35.5% | 84.2% | 46.5% | 71.9% | 98.5% | 92.4% | 45.6% | 53.9% | 29.6% | -47.2% | 89.9% | 36.3% | 38.7% | 88.5% |
| O=C1CN2Cc3c(ccc(Cl)c3Cl)N=C2N1 [Anagrelide] (1000 nM) | 97% | 83.8% |  | 137% |  | 56.1% | 88.6% | 87.3% | 97.4% | 105% | 59.7% | 102% | 103% | 86.2% | 97.8% | 104% | 97% | 94.3% |
| CC1(C)CNc2cc(NC(=O)c3cccnc3NCc3ccncc3)ccc21 [Motesanib] (10000 nM) | 98.2% | 86.8% | 94% | 123% | 94.1% | 102% | 98.6% | 109% | 101% | 101% | 101% | 97.2% | 94.5% | 114% | 96.7% | 80.4% | 103% | 108% |
| CC1(C)CNc2cc(NC(=O)c3cccnc3NCc3ccncc3)ccc21 [Motesanib] (1000 nM) | 98% | 83.6% | 103% | 108% | 108% | 103% |  | 79% | 100% | 101% | 96.1% | 97% | 91.8% | 97.7% | 99.5% | 95.4% | 123% | 97.3% |
| Nc1nc2[nH]cnc2c(=S)[nH]1 [Thioguanine] (10000 nM) | 103% | 133% | 106% | 51.8% | 101% | 92.2% | 83.7% | 93.2% | 91.9% | 97.6% | 80.3% | 103% | 97.4% | 85.2% | 97.7% | 108% | 87% | 96.2% |
| Oc1ncnc2[nH]ncc12 [Allopurinol] (1000 nM) | 100% | 101% |  | 80.5% | 106% | 106% | 89.9% | 107% | 96.8% | 63% | 118% | 103% | 99% |  | 95% | 94.7% | 103% | 97% |
| O=C1CN2Cc3c(ccc(Cl)c3Cl)N=C2N1 [Anagrelide] (10000 nM) | 101% | 100% | 85.1% | 67% | 78.9% | 60.6% | 106% | 94.9% | 96.3% | 100% | 54.9% | 69.6% | 108% | 94.7% | 98.9% | 53.2% | 89.6% | 99% |
| CC(C)(C)c1cnc(CSc2cnc(NC(=O)C3CCNCC3)s2)o1 [SNS-032] (10000 nM) | 93% | 41.9% | 76.9% | 44.3% | 68.4% | 91.3% | 76.1% | 94.2% | 91.7% | 99.2% | 81.1% | 76.7% | 42.8% | -26.5% | 94.1% | 26.3% | 76% | 77.1% |
| Nc1nc2[nH]cnc2c(=S)[nH]1 [Thioguanine] (1000 nM) | 96.4% | 103% |  | 121% | 109% | 94% | 114% | 101% | 104% | 106% | 102% | 92.8% | 112% | 48.4% | 103% | 98.7% | 108% | 97.8% |
| CC[C@@H]1C(=O)OC[C@@H]1Cc1cncn1C [Pilocarpine] (4000 nM) | 96% | 70.9% | 72.1% | 66.5% |  | 73.7% |  | 81.4% | 95.3% | 101% | 104% | 69.2% | 95.5% | 97.8% | 99.3% | 101% | 112% | 92.5% |
| CC1=C2C[C@H]3[C@@H](CC=C4C[C@@H](O)CC[C@@]43C)[C@@H]2CC[C@]12O[C@@H]1C[C@H](C)CN[C@H]1[C@H]2C [Cyclopamine] (10000 nM) | 98% | 51.4% |  | 155% | 110% | 100% |  | 92.2% | 103% | 103% | 98.9% | 89.6% | 66.8% | 116% | 97.8% | 58.9% | 59% | 101% |
| CC[C@@H]1C(=O)OC[C@@H]1Cc1cncn1C [Pilocarpine] (40000 nM) | 98.6% |  | 80.7% |  |  | 96.3% | 97.7% | 92.3% | 96.7% | 93.9% | 98.4% | 97.4% | 114% | 93.1% | 52.5% | 83.9% | 107% | 97% |
